Literature values in patent publication US12324852B2, “Administration of benzodiazepine compositions” (Neurelis, Inc., priority 2011, dated 2025).

For `Cc1ncc2n1-c1ccc(Cl)cc1C(c1ccccc1F)=NC2` [Midazolam, 8-chloro-6-(2-fluorophenyl)-1-methyl-4H-imidazo(1,5-a)benzodiazepine], the “solubility in most aqueous solutions” value (neutral pH (e.g. about 6 to 8)) is listed as “relatively insoluble” and the solubility in water (pH lower than about 4) is listed as “soluble in water”.
